Where a SMILES comes first, the peptide text is derived from it.
How the values were obtained:
[1] = biological target: T1, Glucagon-like peptide 1 receptor (Homo sapiens, UniProt P43220); assay: Agonist activity at human GLP1 receptor expressed in HEK293 cells assessed as increase in cAMP level after 5 hrs by CRE driven luciferase reporter gene assay; type: functional, cell-based
Glucagon receptor [2] = biological target: T2, Glucagon receptor (Homo sapiens, UniProt P47871); assay: Agonist activity at human GCG receptor expressed in HEK293 cells assessed as increase in cAMP level after 5 hrs by CRE driven luciferase reporter gene assay; type: functional, cell-based
[3] = biological target: T3, Gastric inhibitory polypeptide receptor (Homo sapiens, UniProt P48546); assay: Agonist activity at human GIP receptor expressed in HEK293 cells assessed as increase in cAMP level after 5 hrs by CRE driven luciferase reporter gene assay; type: functional, cell-based
T3 sequence (P48546 whole entry): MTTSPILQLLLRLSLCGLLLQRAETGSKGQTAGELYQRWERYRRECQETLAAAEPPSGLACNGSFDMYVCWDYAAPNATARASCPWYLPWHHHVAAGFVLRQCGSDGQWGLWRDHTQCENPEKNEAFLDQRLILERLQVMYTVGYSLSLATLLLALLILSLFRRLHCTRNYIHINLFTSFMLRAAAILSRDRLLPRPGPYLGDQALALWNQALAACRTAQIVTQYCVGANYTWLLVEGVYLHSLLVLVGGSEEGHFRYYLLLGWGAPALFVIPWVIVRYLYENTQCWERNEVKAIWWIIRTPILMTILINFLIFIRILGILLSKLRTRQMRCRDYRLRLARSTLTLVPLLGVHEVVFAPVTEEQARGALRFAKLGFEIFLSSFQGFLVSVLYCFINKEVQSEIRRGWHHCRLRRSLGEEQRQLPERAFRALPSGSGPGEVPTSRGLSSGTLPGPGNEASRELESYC

[4] = biological target: T1, Glucagon-like peptide 1 receptor; assay: Agonist activity at human GLP1 receptor expressed in HEK293 cells assessed as increase in cAMP level after 5 hrs by CRE driven luciferase reporter gene assay relative to GLP1; type: functional, cell-based; parameters: concentration or dose not given beside the values
Glucagon receptor [5] = biological target: T2, Glucagon receptor; assay: Agonist activity at human GCG receptor expressed in HEK293 cells assessed as increase in cAMP level after 5 hrs by CRE driven luciferase reporter gene assay relative to glucagon; type: functional, cell-based
[6] = biological target: T4, Gastric inhibitory polypeptide receptor (Homo sapiens) (UniProt P48546); assay: Agonist activity at human GIP receptor expressed in HEK293 cells assessed as increase in cAMP level after 5 hrs by CRE driven luciferase reporter gene assay relative to GIP; type: functional, cell-based; parameters: concentration or dose not given beside the values
T4 sequence (whole entry): T3 sequence (P48546 whole entry)

[7] = biological target: T5, Glucagon-like peptide 1 receptor (Mus musculus, UniProt O35659); assay: Agonist activity at mouse GLP1 receptor expressed in CHO cells assessed as increase in cAMP level by TR-FRET assay; type: functional, cell-based
T5 sequence (O35659 whole entry): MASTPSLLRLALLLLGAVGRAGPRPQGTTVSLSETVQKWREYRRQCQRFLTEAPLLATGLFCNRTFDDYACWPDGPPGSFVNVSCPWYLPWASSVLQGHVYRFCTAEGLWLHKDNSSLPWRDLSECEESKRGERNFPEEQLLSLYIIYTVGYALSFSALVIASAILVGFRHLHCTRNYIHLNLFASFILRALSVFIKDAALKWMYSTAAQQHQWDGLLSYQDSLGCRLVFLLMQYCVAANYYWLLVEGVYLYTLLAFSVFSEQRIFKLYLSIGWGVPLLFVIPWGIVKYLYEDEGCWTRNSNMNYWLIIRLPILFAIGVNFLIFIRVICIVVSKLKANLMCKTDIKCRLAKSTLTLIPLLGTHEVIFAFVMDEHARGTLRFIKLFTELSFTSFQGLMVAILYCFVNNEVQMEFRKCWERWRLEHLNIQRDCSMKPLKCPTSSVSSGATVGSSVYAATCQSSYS

Glucagon receptor [8] = biological target: Glucagon receptor (Mus musculus, UniProt Q61606); assay: Agonist activity at mouse GCG receptor expressed in CHO cells assessed as increase in cAMP level by TR-FRET assay; type: functional, cell-based
Mus musculus = organism: Mus musculus; assay: Selectivity ratio of EC50 for mouse GLP1 receptor to EC50 for mouse GCG receptor
[9] = biological target: T1, Glucagon-like peptide 1 receptor; assay: Agonist activity at human GLP1 receptor expressed in CHO cells assessed as increase in cAMP level by TR-FRET assay; type: functional, cell-based
Glucagon receptor [10] = biological target: T2, Glucagon receptor; assay: Agonist activity at human GCG receptor expressed in CHO cells assessed as increase in cAMP level by TR-FRET assay; type: functional, cell-based
Glucagon receptor [11] = biological target: T2, Glucagon receptor; assay: Agonist activity at human GCG receptor expressed in CHO cells assessed as increase in cAMP level by TR-FRET assay relative to glucagon; type: functional, cell-based

T1 sequence (P43220 whole entry): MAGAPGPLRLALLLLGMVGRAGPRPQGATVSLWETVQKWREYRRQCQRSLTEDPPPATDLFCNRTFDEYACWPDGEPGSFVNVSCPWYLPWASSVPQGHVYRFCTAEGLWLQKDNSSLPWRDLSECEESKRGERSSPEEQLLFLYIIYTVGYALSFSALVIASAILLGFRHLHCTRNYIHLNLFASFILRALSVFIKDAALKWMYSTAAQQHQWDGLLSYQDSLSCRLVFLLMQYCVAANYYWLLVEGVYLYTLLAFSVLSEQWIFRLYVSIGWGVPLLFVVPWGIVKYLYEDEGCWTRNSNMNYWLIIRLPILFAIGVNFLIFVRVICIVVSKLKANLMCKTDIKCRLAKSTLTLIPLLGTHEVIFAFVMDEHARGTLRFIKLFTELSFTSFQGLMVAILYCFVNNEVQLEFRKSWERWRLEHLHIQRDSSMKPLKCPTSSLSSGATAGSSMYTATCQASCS
T2 sequence (P47871 whole entry): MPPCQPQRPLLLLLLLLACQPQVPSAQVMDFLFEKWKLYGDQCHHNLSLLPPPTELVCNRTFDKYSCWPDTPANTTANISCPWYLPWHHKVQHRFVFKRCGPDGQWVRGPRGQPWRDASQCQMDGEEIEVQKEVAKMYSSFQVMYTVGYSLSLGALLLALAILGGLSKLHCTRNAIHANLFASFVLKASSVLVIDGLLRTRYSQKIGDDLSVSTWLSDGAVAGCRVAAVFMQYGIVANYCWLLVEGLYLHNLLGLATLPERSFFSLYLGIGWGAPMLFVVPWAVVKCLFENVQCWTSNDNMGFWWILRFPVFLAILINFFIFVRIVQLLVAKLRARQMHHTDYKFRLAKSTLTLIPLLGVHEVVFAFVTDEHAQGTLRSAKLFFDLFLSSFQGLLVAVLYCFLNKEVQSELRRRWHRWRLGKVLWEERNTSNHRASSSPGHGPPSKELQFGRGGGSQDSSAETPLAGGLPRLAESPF
Chain of Glucagon receptor (Mus musculus, UniProt Q61606) (Q61606 whole entry): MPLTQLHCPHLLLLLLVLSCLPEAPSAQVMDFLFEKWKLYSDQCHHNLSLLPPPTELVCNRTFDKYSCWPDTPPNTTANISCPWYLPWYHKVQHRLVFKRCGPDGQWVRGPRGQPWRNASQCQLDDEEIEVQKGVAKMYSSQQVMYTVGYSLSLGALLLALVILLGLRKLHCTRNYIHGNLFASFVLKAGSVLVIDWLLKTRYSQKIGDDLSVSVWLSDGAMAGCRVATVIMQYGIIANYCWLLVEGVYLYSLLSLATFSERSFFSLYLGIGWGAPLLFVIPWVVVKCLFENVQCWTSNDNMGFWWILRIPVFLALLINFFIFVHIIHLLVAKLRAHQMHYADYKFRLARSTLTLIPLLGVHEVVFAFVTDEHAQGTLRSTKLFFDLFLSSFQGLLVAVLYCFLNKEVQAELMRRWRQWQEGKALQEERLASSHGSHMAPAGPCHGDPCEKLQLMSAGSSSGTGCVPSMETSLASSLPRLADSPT

Row | EC50 [1] [nM] | EC50 (Glucagon receptor [2]) [nM] | EC50 [3] [nM] | Activity [4] [%] | Activity (Glucagon receptor [5]) [%] | Activity [6] [%] | EC50 [7] [nM] | EC50 (Glucagon receptor [8]) [nM] | Ratio EC50 (Mus musculus) | EC50 [9] [nM] | EC50 (Glucagon receptor [10]) [nM] | Activity (Glucagon receptor [11]) [%] | Structure (SMILES)
1 | 0.015 | 0.028 | 2.19 | 187 | 114 | 1 |  |  |  |  |  |  | CCCCCCCCCCCCCCCC(=O)N[C@@H](CCC(=O)NCCCC[C@H](NC(=O)[C@H](CC(=O)O)NC(=O)[C@H](CO)NC(=O)[C@@H](NC(=O)[C@H](Cc1ccccc1)NC(=O)[C@@H](NC(=O)CNC(=O)[C@H](CCC(N)=O)NC(=O)C(C)(C)NC(=O)[C@@H](N)Cc1cnc[nH]1)[C@@H](C)O)[C@@H](C)O)C(=O)N[C@@H](CO)C(=O)N[C@@H](CCCCN)C(=O)N[C@@H](Cc1ccc(O)cc1)C(=O)N[C@@H](CC(C)C)C(=O)N[C@@H](CC(=O)O)C(=O)NC(C)(C)C(=O)N[C@@H](CCCNC(=N)N)C(=O)N[C@@H](C)C(=O)N[C@@H](C)C(=O)N[C@@H](CCC(N)=O)C(=O)N[C@@H](CC(=O)O)C(=O)N[C@@H](Cc1ccccc1)C(=O)N[C@H](C(=O)N[C@@H](CCC(N)=O)C(=O)N[C@@H](Cc1c[nH]c2ccccc12)C(=O)N[C@@H](CC(C)C)C(=O)N[C@@H](CCSC)C(=O)N[C@@H](CC(=O)O)C(=O)N[C@H](C(N)=O)[C@@H](C)O)C(C)C)C(=O)O
2 | 0.03 | 5.22 | 0.867 | 93 | 1 | 2 |  |  |  |  |  |  | CC[C@H](C)[C@H](NC(=O)[C@H](Cc1ccccc1)NC(=O)[C@H](CCC(=O)O)NC(=O)[C@H](CCCCN)NC(=O)[C@H](C)NC(=O)[C@H](C)NC(=O)[C@H](CCC(N)=O)NC(=O)[C@H](CCC(=O)O)NC(=O)[C@H](CC(=O)O)NC(=O)[C@H](CC(C)C)NC(=O)[C@H](Cc1ccc(O)cc1)NC(=O)[C@H](CCCCN)NC(=O)[C@H](CO)NC(=O)[C@H](Cc1ccc(O)cc1)NC(=O)[C@H](CC(=O)O)NC(=O)[C@H](CO)NC(=O)[C@@H](NC(=O)[C@H](Cc1ccccc1)NC(=O)[C@@H](NC(=O)CNC(=O)[C@H](CCC(=O)O)NC(=O)[C@H](CO)NC(=O)[C@@H](N)Cc1cnc[nH]1)[C@@H](C)O)[C@@H](C)O)C(=O)N[C@@H](C)C(=O)N[C@@H](Cc1c[nH]c2ccccc12)C(=O)N[C@@H](CC(C)C)C(=O)N[C@@H](CCSC)C(=O)N[C@@H](CC(N)=O)C(=O)N[C@H](C(N)=O)[C@@H](C)O (H-HSEGTFTSDYSKYLDEQAAKEFIAWLMNT-NH2)
3 |  |  |  |  |  |  | 0.03 | > 100 | < 0.001 | 0.09 | > 1000 | < 0.05 | CC[C@H](C)[C@H](NC(=O)[C@H](Cc1ccccc1)NC(=O)[C@H](CCC(=O)O)NC(=O)[C@H](CCCCN)NC(=O)[C@H](C)NC(=O)[C@H](C)NC(=O)[C@H](CCC(N)=O)NC(=O)CNC(=O)[C@H](CCC(=O)O)NC(=O)[C@H](CC(C)C)NC(=O)[C@H](Cc1ccc(O)cc1)NC(=O)[C@H](CCCCN)NC(=O)[C@H](CO)NC(=O)[C@@H](NC(=O)[C@H](CC(=O)O)NC(=O)[C@H](CO)NC(=O)[C@@H](NC(=O)[C@H](Cc1ccccc1)NC(=O)[C@@H](NC(=O)CNC(=O)[C@H](CCC(=O)O)NC(=O)[C@H](C)NC(=O)[C@@H](N)Cc1cnc[nH]1)[C@@H](C)O)[C@@H](C)O)C(C)C)C(=O)N[C@@H](C)C(=O)N[C@@H](Cc1c[nH]c2ccccc12)C(=O)N[C@@H](CC(C)C)C(=O)N[C@H](C(=O)N[C@@H](CCCCN)C(=O)NCC(=O)N[C@@H](CCCNC(=N)N)C(N)=O)C(C)C

Source: ChEMBL document CHEMBL4219047, “Optimization of peptide-based polyagonists for treatment of diabetes and obesity” (Bioorg Med Chem, 2018)
